Test results taken from patent US20230293526A1, “METHOD FOR TREATING CANCER WITH A REVERSE TRANSCRIPTASE INHIBITOR” (PrimeFour Therapeutics, Inc., priority 2020, published 2023).

Key:
Experiment in all cases: Cell proliferation CellTiterGlo Ex.2
Assay type in all cases: cell-based
Mia PaCA 2 = details: Homo sapiens; Mia PaCA 2 (Pancreas), 72 h
Method in brief: (§1)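 Cells were seeded, incubated overnight at 37 °C, then dosed at 10, 3, 1, 0.3, 0.1, 0.03, 0.01 and 0.003 μM for 72 h (5% or 10% CO2). CellTiterGlo luminescence gave percent viability relative to 0.10% DMSO (high) and 10 μM staurosporine (low) controls.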

NCI-H1563 = details: Homo sapiens; NCI-H1563 (Lung), 72 h
Method in brief: as §1

KARPAS 299 = details: Homo sapiens; KARPAS 299 (Blood), 72 h
Method in brief: as §1

SNU-1 = details: Homo sapiens, SNU1; SNU-1 (Stomach), 72 h
Method in brief: as §1

OVK18 = OVK18 (Ovary), 72 h
Method in brief: as §1

RKO = details: Homo sapiens; RKO (Colon), 72 h
Method in brief: as §1

SW-1783 = details: Homo sapiens, SW1783; SW-1783 (Brain), 72 h
Method in brief: as §1

Calu-6 = details: Homo sapiens; Calu-6 (Lung), 72 h
Method in brief: as §1

SNU840 = details: SNU-840; SNU840 (Ovary), 72 h
Method in brief: as §1

NCI-H1838 = details: Homo sapiens; NCI-H1838 (Lung), 72 h
Method in brief: as §1

PC-9 = details: Homo sapiens; PC-9 (Lung), 72 h
Method in brief: as §1

LOU-NH91 = LOU-NH91 (Lung), 72 h
Method in brief: as §1

H1299 = details: Homo sapiens, NCI-H1299; H1299 (Lung), 72 h
Method in brief: as §1

Hep3B2.1-7 = Hep3B2.1-7 (Liver), 72 h
Method in brief: as §1

NCI-H1703 = details: Homo sapiens; NCI-H1703 (Lung), 72 h
Method in brief: as §1

SK-OV3 = details: Homo sapiens, SK-OV-3; SK-OV3 (Ovary), 72 h
Method in brief: as §1

OVCAR-3 = details: Homo sapiens; OVCAR-3 (Ovary), 72 h
Method in brief: as §1

MKN-1 = details: Homo sapiens; MKN-1 (Stomach), 72 h
Method in brief: as §1

KMS-12-BM = details: Homo sapiens; KMS-12-BM (Blood), 72 h
Method in brief: as §1

A427 = details: Homo sapiens, A-427; A427 (Lung), 72 h
Method in brief: as §1

NCI-H2286 = details: Homo sapiens; NCI-H2286 (Lung), 72 h
Method in brief: as §1

Detroit562 = details: Homo sapiens, Detroit 562; Detroit562 (Head/Neck), 72 h
Method in brief: as §1

LN229 = details: Homo sapiens, LN-229; LN229 (Brain), 72 h
Method in brief: as §1

SW480 = details: Homo sapiens; SW480 (Colon), 72 h
Method in brief: as §1

NCI-H2009 = details: Homo sapiens; NCI-H2009 (Lung), 72 h
Method in brief: as §1

H460 = details: Homo sapiens, NCI-H460; H460 (Lung), 72 h
Method in brief: as §1

SK-N-MC = details: Homo sapiens; SK-N-MC (Brain), 72 h
Method in brief: as §1

SW620 = details: Homo sapiens, SW-620; SW620 (Colon), 72 h
Method in brief: as §1

NCI-H292 = details: Homo sapiens; NCI-H292 (Lung), 72 h
Method in brief: as §1

MEC-1 = details: Homo sapiens, MEC1; MEC-1 (Blood), 72 h
Method in brief: as §1

KG-1 = details: Homo sapiens; KG-1 (Blood), 72 h
Method in brief: as §1

OCI-AML3 = details: Homo sapiens, OCI-AML-3; OCI-AML3 (Blood), 72 h
Method in brief: as §1

MKN-45 = details: Homo sapiens; MKN-45 (Stomach), 72 h
Method in brief: as §1

C#C[C@]1(CO)O[C@@H](n2cnc3c(=O)[nH]c(N)nc32)C[C@@H]1O [compound 13]
IC50 (Mia PaCA 2): > 10 µM | IC50 (NCI-H1563): > 10 µM | IC50 (KARPAS 299): 4.07 µM | IC50 (SNU-1): 2.89 µM | IC50 (OVK18): 2.21 µM | IC50 (RKO): 4.51 µM | IC50 (SW-1783): 2.25 µM | IC50 (Calu-6): > 10 µM | IC50 (SNU840): 4.23 µM | IC50 (NCI-H1838): 7.53 µM | IC50 (PC-9): > 10 µM | IC50 (LOU-NH91): > 10 µM | IC50 (H1299): 7.68 µM | IC50 (Hep3B2.1-7): 0.82 µM | IC50 (NCI-H1703): 9.16 µM | IC50 (SK-OV3): 4 µM | IC50 (OVCAR-3): 1.16 µM | IC50 (MKN-1): 8.76 µM | IC50 (KMS-12-BM): 0.96 µM | IC50 (A427): 0.55 µM | IC50 (NCI-H2286): 5.69 µM | IC50 (Detroit562): 4.79 µM | IC50 (LN229): 2.23 µM | IC50 (SW480): > 10 µM | IC50 (NCI-H2009): 1.23 µM | IC50 (H460): 5.68 µM | IC50 (SK-N-MC): 3.19 µM | IC50 (SW620): 7.21 µM | IC50 (NCI-H292): 8.56 µM | IC50 (MEC-1): 9.85 µM | IC50 (KG-1): > 10 µM | IC50 (OCI-AML3): 7.15 µM | IC50 (MKN-45): > 10 µM
